According to PubChem BioAssay AID977628 (Broad Institute, 2014):
Inconclusive results are not listed. Activity calls are given as the source filed them.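 The calls were made as follows: active = compound lowering the normal-ribosome reporter at least twice as much as the humanized-ribosome reporter, growth loss under a set limit; inconclusive = no clear call, values can overlap the other calls; inactive = the rest.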

System: E. coli WT GFP strain growth, fluorescence, 24 h
Test: growth of wild-type and h24-humanized E. coli strains – h24 mutant RFP vs wild-type GFP, cherry-pick, dose response (AID 977628)

Row | Compound | AC50
1 | O=C(Cc1cccc2ccccc12)Nc1ccccc1C(=O)O | > 100 µM (inactive)
2 | COc1cc2[nH]c(=S)nc(NCCc3ccc(C)cc3)c2cc1OC | > 100 µM (inactive)
3 | O=C(CSc1ccccc1)Nc1cccc(NC(=O)c2ccco2)c1 | > 100 µM (inactive)
4 | COc1cc(SC)ccc1C(=O)N1CCN(c2ccccc2F)CC1 | > 100 µM (inactive)
5 | c1ccc(SCc2nc3ccccc3s2)nc1 | > 100 µM (inactive)
6 | c1cncc(-c2nc3cc4ccccc4cc3[nH]2)c1 | > 100 µM (inactive)
7 | CCCn1nnnc1NCc1ccccc1OCc1cccs1 | > 100 µM (inactive)
8 | CC(C)C[C@@H](CSc1ccccc1)N1CCN(CC(C)C)CCC1=O | > 100 µM (inactive)
9 | COc1ccc(C(=O)C2CCCN(C(=O)c3noc4c3CCCC4)C2)cc1F (stereo not given) | > 100 µM (inactive)
10 | CSC1=NCCN1C(=O)Cc1ccc(-c2ccccc2)cc1 | > 100 µM (inactive)
11 | COc1ccccc1Cn1c(=S)[nH]c2ccc(F)cc2c1=O | > 100 µM (inactive)
12 | COc1cccc(Nc2nc(N)c([N+](=O)[O-])c(NCc3ccccc3)n2)c1 | > 100 µM (inactive)
13 | COc1ccc(Cn2c(=O)c3[nH]cnc3n(-c3ccc(C)cc3)c2=O)cc1 | > 100 µM (inactive)
14 | O=C(NCc1ccccc1Cl)[C@H]1CCCN1C(=O)[C@H]1CCCN1C(=O)c1cccc2ccccc12 | > 100 µM (inactive)
15 | CCOc1ccc(OCc2cccc(C(=O)O)c2)cc1 | > 100 µM (inactive)
16 | COc1cc(NC(=O)C(c2ccccc2)c2ccccc2)c(C(=O)O)cc1OC | > 100 µM (inactive)
17 | O=C(C[n+]1cc(-c2ccc(Cl)c(Cl)c2)n2c1CCC2)OCc1ccccc1 | > 100 µM (inactive)
18 | O=C(Nc1ccc2nc(-c3ccccc3)[nH]c2c1)c1cccs1 | > 100 µM (inactive)
19 | O=C1c2ccccc2C(=O)N1CCc1c[nH]c2ccccc12 | > 100 µM (inactive)
20 | Nc1nc(=S)ss1 | > 100 µM (inactive)
21 | CCC(=O)Nc1nc2ccc(NC(=O)c3cc(OC)c(OC)c(OC)c3)cc2s1 | > 100 µM (inactive)
22 | CCN(CC)S(=O)(=O)c1cccc(NC(=O)CNc2cccc(S(=O)(=O)N3CCCC3)c2)c1 | > 100 µM (inactive)
23 | S=c1[nH]nc(-c2ccc3ccccc3n2)n1-c1ccc2c(c1)OCCO2 | > 100 µM (inactive)
24 | COC(=O)c1sccc1NC(=O)Cn1nnc(-c2ccccc2C)n1 | > 100 µM (inactive)

Row | Compound | AC50
25 | Cc1cc(Br)ccc1SCC(=O)OCC(=O)NCc1ccco1 | > 100 µM (inactive)
26 | O=C(CCc1nc2ccccc2s1)OCC(=O)c1ccc[nH]1 | > 100 µM (inactive)
27 | CSc1ccc(CN(C)CC(=O)NC(C)c2ccccc2)cc1 (stereo not given) | > 100 µM (inactive)
28 | COc1ccc(OC2C(=O)N(Cc3ccc4c(c3)OCO4)C2c2sccc2C)cc1 (stereo not given) | > 100 µM (inactive)
29 | COc1ccccc1-c1ccc(SCc2ccc(F)cc2)nn1 | > 100 µM (inactive)
30 | COc1cccc(C(NC(C)=O)c2nc(-c3ccccc3OC)cs2)c1 (stereo not given) | > 100 µM (inactive)
31 | CCc1nc2ccccc2n1CCc1ccccc1 | > 100 µM (inactive)
32 | O=C(Cn1cnc2ccccc21)c1ccc(Br)cc1 | > 100 µM (inactive)
33 | Cc1cccc(CN2C(=O)c3ccccc3Sc3ccc(C(=O)O)cc32)c1 | > 100 µM (inactive)
34 | CSc1cccc(NC(=O)CSc2nc3ccccc3o2)c1 | > 100 µM (inactive)
35 | Cc1ccc(C(=O)Nc2cccc(N(C)S(C)(=O)=O)c2)cc1S(=O)(=O)Nc1ccccc1 | > 100 µM (inactive)
36 | CN1C(=O)c2ccccc2OC1(C)Cc1ccccc1 (stereo not given) | > 100 µM (inactive)
37 | Cc1ccccc1-n1ncc2c1CC(C)(C)CC2NC(=O)CCN1Cc2ccccc2C1=O (stereo not given) | > 100 µM (inactive)
38 | CC1CCCCN1CC(O)COCCC12CC3CC(CC(C3)C1)C2 (stereo not given) | > 100 µM (inactive)
39 | O=C(Nc1ccc2c(c1)OCO2)c1ccc([N+](=O)[O-])cc1[N+](=O)[O-] | > 100 µM (inactive)
40 | O=C(O)c1nn2c(C(F)(F)F)cc(-c3cccs3)nc2c1Cl | > 100 µM (inactive)
41 | COc1ccc2[nH]cc(CCNC(=O)C3CC(=O)N(c4ccc(Cl)cc4)C3)c2c1 (stereo not given) | > 100 µM (inactive)
42 | O=C(C[C@H]1CC[C@@H]2[C@H](COC[C@@H](O)CN2C(=O)Nc2cc(Cl)cc(Cl)c2)O1)N1CCOCC1 | > 100 µM (inactive)
43 | O=C1Nc2ccc(F)cc2C12Nc1ccccc1-c1nnc(SCc3ccccc3)nc1O2 (stereo not given) | > 100 µM (inactive)
44 | COc1cccc(NC(=O)C2CCC(CNS(=O)(=O)c3cccc4cccnc34)CC2)c1 (stereo not given) | > 100 µM (inactive)
45 | Fc1ccc(-c2nnc(-c3ccc4ccccc4c3)o2)cc1 | > 100 µM (inactive)
46 | CCCc1c(C(=O)Nc2ccc(OC)cc2)cnn1-c1ccccc1 | > 100 µM (inactive)
47 | COc1ccc(OCC2c3cc(OC)c(OC)cc3CCN2C(=O)C(C)C)cc1 (stereo not given) | > 100 µM (inactive)
48 | CCCCNc1ccc2c(c1)OC[C@@H](Cc1ccccc1)NS2(=O)=O | > 100 µM (inactive)

Row | Compound | AC50
49 | COc1ccc(CNc2cc([N+](=O)[O-])ccc2OC)cc1 | > 100 µM (inactive)
50 | CC1C=Cc2ccccc2N1C(=O)c1ccccc1 (stereo not given) | > 100 µM (inactive)
51 | O=C(CCC(=O)N1CCN(c2ccc(F)cc2)CC1)N1CCN(c2ccc(F)cc2)CC1 | > 100 µM (inactive)
52 | Cc1cccc(NC(=O)c2sc3nc(-c4ccccc4)cn3c2C)n1 | > 100 µM (inactive)
53 | COc1ccc2c(c1)c(C(C)=O)c(C)n2CCc1ccc(OC)c(OC)c1 | > 100 µM (inactive)
54 | CN(c1ccccc1)S(=O)(=O)c1cccc(C(=O)OCC(=O)NCc2ccco2)c1 | > 100 µM (inactive)
55 | O=C(O)c1cc2ccc3ccccc3c2[nH]1 | > 100 µM (inactive)
56 | COc1ccccc1-c1cc2nc(NCCc3ccncc3)ccn2n1 | > 100 µM (inactive)
57 | O=C(CCCOc1ccc(Cl)cc1Cl)Nc1ccccc1C(=O)O | > 100 µM (inactive)
58 | COc1ccc(-c2cc(C(=O)N(C)CCc3ccc(OC)c(OC)c3)c3ccccc3n2)cc1 | > 100 µM (inactive)
59 | O=S1(=O)N[C@H](Cc2ccccc2)COc2cccc(N3CCC[C@H]3CO)c21 | > 100 µM (inactive)
60 | O=C(O)C1CCCCC1C(=O)Nc1ccc(OCc2ccccc2)cc1 (stereo not given) | > 100 µM (inactive)
61 | C[C@@H]1CCCCO[C@@H](CN(C)C(=O)c2ccccc2)[C@H](C)CN([C@@H](C)CO)C(=O)c2cc(NC(=O)c3ccccc3)ccc2O1 | > 100 µM (inactive)
62 | O=C1NC(CCc2ccccc2)C(=O)N1Cc1cccc2ccccc12 (stereo not given) | > 100 µM (inactive)
63 | CCCCn1c(NS(=O)(=O)c2ccc(C)cc2)c(C(=O)OCC)c2nc3ccccc3nc21 | > 100 µM (inactive)
64 | Cc1cc(Br)ccc1NC(=O)c1ccco1 | > 100 µM (inactive)
65 | CCOc1ccc2nc(SCC(=O)Nc3cccc(S(=O)(=O)NC4=NCCCCC4)c3)[nH]c2c1 | > 100 µM (inactive)
66 | O=C(Nc1cc(F)ccc1F)N1CCCCN2[C@@H](CO)[C@H](c3ccc(-c4ccncc4)cc3)[C@@H]2C1 | > 100 µM (inactive)
67 | N#Cc1ccc(C(=O)Nc2ccn(-c3ccccc3)n2)cc1 | > 100 µM (inactive)
68 | COc1cc2nc(Nc3ccc(F)cc3)nc(N)c2cc1OC | > 100 µM (inactive)
69 | CCN(c1cccc2ccccc12)S(=O)(=O)c1ccc(Cl)nc1 | > 100 µM (inactive)
70 | CCOC(=O)Cc1csc(NC(=O)c2cc3ccccc3o2)n1 | > 100 µM (inactive)
